According to article PMC9032718, “Eltrombopag as an Allosteric Inhibitor of the METTL3-14 Complex Affecting the m^6A Methylation of RNA in Acute Myeloid Leukemia Cells” (Pharmaceuticals, 2022):

Key:
DOT1L = molecular target: T1, DOT1L (Homo sapiens, UniProt Q8TEK3); assay: Methyltransferase selectivity panel (MT HotSpot radioisotope assay), DOT1L; assay type: biochemical; conditions: 10 μM eltrombopag, DOT1L
T1 construct: purchased Reaction Biology (Malvern, PA, USA), contract assay
Protocol: (§1) The selectivity profile of eltrombopag was investigated by testing the level of inhibition in a methyltransferase panel. The inhibition of 7 […] methyltransferase was tested at Reaction Biology (Malvern, PA, USA) using a gold standard radioisotope-based MT assay (MT HotSpot^TM) with 10 μM of eltrombopag in duplicate.

MLL4 complex = molecular target: T2, MLL4 complex (Homo sapiens, UniProt Q9UMN6); assay: Methyltransferase selectivity panel (MT HotSpot radioisotope assay), MLL4 complex; assay type: biochemical; conditions: 10 μM eltrombopag
T2 construct: purchased Reaction Biology (Malvern, PA, USA), contract assay
Protocol: as §1

PRDM9 = molecular target: T3, PRDM9 (Homo sapiens, UniProt Q9NQV7); assay: Methyltransferase selectivity panel (MT HotSpot radioisotope assay), PRDM9; assay type: biochemical; conditions: 10 μM eltrombopag
T3 construct: purchased Reaction Biology (Malvern, PA, USA), contract assay
T3 sequence (Q9NQV7 whole entry): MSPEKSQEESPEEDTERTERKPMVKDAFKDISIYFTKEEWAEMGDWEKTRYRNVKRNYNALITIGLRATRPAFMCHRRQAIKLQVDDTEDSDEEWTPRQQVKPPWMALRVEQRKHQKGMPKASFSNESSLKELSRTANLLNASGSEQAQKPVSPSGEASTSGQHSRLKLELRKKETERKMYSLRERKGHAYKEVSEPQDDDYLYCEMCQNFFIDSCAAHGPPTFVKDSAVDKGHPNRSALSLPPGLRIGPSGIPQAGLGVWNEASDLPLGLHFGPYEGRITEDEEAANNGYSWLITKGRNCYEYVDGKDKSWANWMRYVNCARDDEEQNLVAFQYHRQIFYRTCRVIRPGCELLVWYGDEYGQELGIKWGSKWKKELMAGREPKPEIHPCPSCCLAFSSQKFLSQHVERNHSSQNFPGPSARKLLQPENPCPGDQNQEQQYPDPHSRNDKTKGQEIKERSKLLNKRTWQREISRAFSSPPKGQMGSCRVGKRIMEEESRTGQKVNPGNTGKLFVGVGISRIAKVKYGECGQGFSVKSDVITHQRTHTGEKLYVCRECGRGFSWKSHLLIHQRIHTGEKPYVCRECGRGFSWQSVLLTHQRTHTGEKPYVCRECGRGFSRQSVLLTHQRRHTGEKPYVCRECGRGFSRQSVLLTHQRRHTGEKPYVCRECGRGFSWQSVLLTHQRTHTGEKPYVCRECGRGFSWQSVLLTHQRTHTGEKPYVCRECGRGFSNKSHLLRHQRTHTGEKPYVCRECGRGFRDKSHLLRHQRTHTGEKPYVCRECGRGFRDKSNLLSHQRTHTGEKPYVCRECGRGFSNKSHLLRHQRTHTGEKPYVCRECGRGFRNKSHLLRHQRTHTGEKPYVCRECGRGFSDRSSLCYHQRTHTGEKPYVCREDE
Protocol: as §1

SETD2 = molecular target: T4, SETD2 (Homo sapiens, UniProt Q9BYW2); assay: Methyltransferase selectivity panel (MT HotSpot radioisotope assay), SETD2; assay type: biochemical; conditions: 10 μM eltrombopag
T4 construct: purchased Reaction Biology (Malvern, PA, USA), contract assay
T4 sequence (Q9BYW2 whole entry): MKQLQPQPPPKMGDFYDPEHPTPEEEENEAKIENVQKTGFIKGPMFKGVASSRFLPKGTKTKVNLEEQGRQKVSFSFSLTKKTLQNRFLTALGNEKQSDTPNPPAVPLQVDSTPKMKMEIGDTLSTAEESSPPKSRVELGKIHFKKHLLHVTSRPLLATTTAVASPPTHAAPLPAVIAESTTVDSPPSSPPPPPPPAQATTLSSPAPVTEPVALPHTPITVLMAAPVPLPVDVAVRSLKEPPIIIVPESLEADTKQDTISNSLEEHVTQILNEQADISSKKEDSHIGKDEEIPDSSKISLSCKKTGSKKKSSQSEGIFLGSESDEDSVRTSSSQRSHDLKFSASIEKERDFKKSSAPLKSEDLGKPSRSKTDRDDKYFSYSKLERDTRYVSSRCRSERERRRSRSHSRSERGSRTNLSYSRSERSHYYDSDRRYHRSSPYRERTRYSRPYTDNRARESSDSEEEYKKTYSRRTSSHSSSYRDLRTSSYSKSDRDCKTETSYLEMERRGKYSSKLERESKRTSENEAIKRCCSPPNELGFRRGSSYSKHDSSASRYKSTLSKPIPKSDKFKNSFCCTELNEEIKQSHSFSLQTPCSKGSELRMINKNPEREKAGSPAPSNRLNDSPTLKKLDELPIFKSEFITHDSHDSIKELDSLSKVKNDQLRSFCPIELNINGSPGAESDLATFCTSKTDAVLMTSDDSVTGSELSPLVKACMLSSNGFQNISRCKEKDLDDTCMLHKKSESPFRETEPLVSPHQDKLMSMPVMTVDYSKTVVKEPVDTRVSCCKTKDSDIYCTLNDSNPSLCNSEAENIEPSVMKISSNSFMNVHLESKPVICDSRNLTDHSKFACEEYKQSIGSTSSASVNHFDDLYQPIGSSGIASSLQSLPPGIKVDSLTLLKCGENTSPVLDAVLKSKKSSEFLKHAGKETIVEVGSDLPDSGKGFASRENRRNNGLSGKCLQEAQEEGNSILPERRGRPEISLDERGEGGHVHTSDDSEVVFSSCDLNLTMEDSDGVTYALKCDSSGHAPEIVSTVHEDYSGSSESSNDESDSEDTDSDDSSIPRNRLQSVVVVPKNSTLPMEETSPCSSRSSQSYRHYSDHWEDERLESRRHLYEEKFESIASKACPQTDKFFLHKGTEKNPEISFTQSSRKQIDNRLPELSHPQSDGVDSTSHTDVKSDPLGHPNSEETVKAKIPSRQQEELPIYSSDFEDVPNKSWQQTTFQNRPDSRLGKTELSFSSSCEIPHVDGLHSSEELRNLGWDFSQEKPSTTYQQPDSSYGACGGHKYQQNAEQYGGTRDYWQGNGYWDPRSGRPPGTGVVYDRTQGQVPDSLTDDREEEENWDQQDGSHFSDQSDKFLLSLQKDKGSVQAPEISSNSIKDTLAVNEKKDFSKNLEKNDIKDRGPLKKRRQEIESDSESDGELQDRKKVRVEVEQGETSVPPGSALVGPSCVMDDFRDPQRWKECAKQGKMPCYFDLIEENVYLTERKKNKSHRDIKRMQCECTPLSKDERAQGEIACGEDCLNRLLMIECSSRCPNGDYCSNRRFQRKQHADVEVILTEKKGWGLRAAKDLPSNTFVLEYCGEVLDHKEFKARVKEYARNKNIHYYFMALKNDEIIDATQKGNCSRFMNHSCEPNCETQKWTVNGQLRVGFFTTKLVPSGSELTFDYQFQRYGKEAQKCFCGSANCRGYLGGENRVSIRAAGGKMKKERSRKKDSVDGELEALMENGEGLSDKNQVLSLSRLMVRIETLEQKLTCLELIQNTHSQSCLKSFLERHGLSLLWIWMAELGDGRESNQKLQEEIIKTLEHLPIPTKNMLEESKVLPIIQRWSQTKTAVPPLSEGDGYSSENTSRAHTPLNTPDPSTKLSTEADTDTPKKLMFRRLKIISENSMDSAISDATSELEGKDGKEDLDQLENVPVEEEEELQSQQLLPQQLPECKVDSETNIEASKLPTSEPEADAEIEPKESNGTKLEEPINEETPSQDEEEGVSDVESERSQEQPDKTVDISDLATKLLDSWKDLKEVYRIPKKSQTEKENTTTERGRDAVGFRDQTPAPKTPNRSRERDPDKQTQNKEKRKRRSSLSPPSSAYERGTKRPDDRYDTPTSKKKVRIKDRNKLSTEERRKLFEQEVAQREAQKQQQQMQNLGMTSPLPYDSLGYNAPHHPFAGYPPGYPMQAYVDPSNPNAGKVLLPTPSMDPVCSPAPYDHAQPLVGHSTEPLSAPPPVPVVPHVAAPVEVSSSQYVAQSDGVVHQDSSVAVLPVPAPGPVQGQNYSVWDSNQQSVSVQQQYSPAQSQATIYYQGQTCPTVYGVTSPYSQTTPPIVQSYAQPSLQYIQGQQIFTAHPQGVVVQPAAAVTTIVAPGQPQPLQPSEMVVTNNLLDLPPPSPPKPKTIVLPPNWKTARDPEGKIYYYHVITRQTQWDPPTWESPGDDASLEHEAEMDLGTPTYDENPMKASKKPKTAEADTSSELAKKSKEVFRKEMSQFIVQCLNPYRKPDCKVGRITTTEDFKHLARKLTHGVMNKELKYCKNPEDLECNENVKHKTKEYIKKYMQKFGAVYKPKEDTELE
Protocol: as §1

MOLM-14 cells = assay: Anti-proliferative assay (EZ-cytox), MOLM-14; assay type: cell-based; conditions: Homo sapiens, MOLM-14, 72 h
Protocol: The MOLM-13, MOLM-14, HL60, MV4-11, and THP-1 cells were seeded in white 96-well clear bottomed plates with 100 μL of medium (5000 cells/well). The plated cells were treated with serially diluted compounds and incubated for 72 h at 37 °C. After incubation, 10 μL of EZ-cytox kit reagent from the EZ-cytox cell viability assay kit (DaeiLab, Seoul, Korea) was added to each well and then incubated for 3 h at 37 °C. The absorbance of metabolically active cells was measured at a wavelength of 450 nm using a Victor multilabel reader (PerkinElmer). The GI50 values were calculated by nonlinear regression analysis using OriginPro 9.1 software (OriginLab).

[1] = test system: m^6A/A on poly-A+-enriched mRNA of MOLM-13 cells; assay: Quantitative analysis of m^6A level on poly-A+-enriched mRNA by mass spectrometry; assay type: cell-based; conditions: Homo sapiens
Protocol: The MOLM-13 cells were seeded in 10 cm^2 dishes at a density of 1.5 × 10^6 cells/mL with 10 mL of complete medium. After 24 h, the plated cells were treated with the vehicle (DMSO) or serial dilutions of eltrombopag and incubated for 24 h. Following incubation in the cell culture incubator, total RNA was extracted using TRIsure^TM (Bioline, Brisbane, Australia) according to the manufacturer’s instructions. Then, poly-A^+-enriched mRNA was purified from the extracted total RNA using the Magnosphere^TM ultrapure mRNA purification kit (Takara, Shiga, Japan). One microgram of mRNA was digested to the nucleosides using 2 units of nuclease P1 (NEB) and dephosphorylated using 1 unit of alkaline phosphatase (NEB) at 37 °C for 2 h.
The produced nucleosides were detected by reversed-phase high-performance liquid chromatography on an ACQUITY BEH C18 column (1.7 μm, 2.1 mm × 50 mm; Waters) coupled with mass spectrometry detection using an EVOQ Elite ER LC-TQ (Bruker). The adenosine and m^6A were quantified using MRM transition as follows: m/z = 267.9 -> 136.1 and m/z = 282.1 -> 150.1, respectively. (Retention time 5 min). The m^6A/A nucleoside ratio of the eltrombopag-treated sample was normalized to the corresponding value of the DMSO treated negative control. The inhibition curves were plotted using OriginPro 9.1 software (OriginLab) and fitted using nonlinear regression analysis.

[2] = test system: m^6A methylation of MOLM-13 transcriptome; assay: m^6A-seq and sequencing data analysis (differential methylation peaks, motifs, annotation, GO enrichment); assay type: cell-based, human
Protocol: mRNA was purified using a GenElute™ mRNA Miniprep Kit (SIGMA, MRN10-1KT, St. Louis, MO, USA) according to the manufacturer’s protocol. Briefly, the total RNA was mixed with 2× Binding Solution and oligo(dT) beads, vortexed, and left for 10 min at room temperature. The beads:mRNA complex was passed through a GenElute spin filter/collection tube and washed twice with Wash Solution. The mRNA was eluted in an Elution Solution incubated at 70 °C.
m^6A-seq was performed using the EpiMark® N^6-Methyladenosine Enrichment Kit (NEB, E1610S). Briefly, 25 μL of Dynabeads™ Protein G (Invitrogen, 10004D) and 1 μL of N^6-Methyladenosine Antibody were incubated in a 4 °C rotator for 2 h. The purified mRNA was fragmented at 95 °C for 10 min in a fragmentation buffer (100 mM Tris (pH 8.0), 8 mM MgCl2) with spike-in control RNA (m^6A and unmodified, 0.1 fmol of each RNA). The fragmented RNA was concentrated with RNA Clean & Concentrator™-5 (ZYMO […], R1014, Irvine, CA, USA) and then 5% was saved as the input. The remaining 95% of the fragmented RNA was added to the beads/antibody complex. RNA was eluted in Buffer RLT (QIAGEN, 79216, Hilden, Germany), followed by ethanol precipitation and was used for sequencing library construction. All sequencing experiments were performed in triplicate via Novaseq. Adapter trimming and QC were performed using Trim Galore. Reads were mapped to hg38 by HISAT2 [56], and exomePeak and HOMER [58] were used to analyze the differential methylation peaks, motifs, and gene annotations.

[3] = set-up: method as in PMID 34225039; conditions: cited from earlier work

T1 sequence (Q8TEK3 whole entry): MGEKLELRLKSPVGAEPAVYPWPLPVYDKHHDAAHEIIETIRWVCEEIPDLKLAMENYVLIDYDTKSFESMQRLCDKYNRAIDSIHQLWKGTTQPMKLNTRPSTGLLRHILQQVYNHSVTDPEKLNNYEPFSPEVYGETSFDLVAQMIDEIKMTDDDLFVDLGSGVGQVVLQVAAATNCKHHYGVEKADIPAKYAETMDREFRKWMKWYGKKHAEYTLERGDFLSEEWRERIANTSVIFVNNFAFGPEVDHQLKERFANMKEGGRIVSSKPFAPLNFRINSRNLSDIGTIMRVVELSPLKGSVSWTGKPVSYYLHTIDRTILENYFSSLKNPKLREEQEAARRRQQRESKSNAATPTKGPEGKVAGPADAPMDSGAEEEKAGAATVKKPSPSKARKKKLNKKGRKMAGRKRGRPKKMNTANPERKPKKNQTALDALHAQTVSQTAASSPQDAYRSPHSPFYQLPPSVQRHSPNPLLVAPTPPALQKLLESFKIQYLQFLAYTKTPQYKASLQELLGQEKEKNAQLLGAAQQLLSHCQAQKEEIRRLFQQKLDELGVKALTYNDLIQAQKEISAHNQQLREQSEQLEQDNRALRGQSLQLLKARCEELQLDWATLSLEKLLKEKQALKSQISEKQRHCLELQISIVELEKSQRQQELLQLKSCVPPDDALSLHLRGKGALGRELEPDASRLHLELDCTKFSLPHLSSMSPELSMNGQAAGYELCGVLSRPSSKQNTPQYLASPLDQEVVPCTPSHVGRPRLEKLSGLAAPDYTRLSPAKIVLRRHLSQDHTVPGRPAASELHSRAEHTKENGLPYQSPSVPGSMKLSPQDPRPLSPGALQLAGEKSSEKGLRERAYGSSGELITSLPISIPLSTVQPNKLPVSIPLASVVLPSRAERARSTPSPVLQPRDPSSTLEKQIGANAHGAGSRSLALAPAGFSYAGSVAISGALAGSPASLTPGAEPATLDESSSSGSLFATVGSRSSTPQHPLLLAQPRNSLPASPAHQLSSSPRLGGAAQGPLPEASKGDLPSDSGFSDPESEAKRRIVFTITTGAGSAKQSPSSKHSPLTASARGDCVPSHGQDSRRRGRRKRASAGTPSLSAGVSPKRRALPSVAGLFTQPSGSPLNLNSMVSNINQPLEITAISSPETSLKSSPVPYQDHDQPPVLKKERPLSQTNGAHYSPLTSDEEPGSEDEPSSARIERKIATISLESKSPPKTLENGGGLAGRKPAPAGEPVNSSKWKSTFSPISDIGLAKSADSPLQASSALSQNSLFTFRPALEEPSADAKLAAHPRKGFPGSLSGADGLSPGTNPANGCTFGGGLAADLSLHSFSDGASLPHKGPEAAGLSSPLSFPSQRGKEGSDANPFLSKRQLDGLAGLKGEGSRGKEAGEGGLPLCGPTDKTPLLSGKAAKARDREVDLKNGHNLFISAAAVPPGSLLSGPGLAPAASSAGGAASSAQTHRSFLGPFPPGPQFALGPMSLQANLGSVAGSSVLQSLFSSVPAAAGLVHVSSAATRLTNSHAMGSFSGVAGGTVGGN

Structure (SMILES): CC1=NN(c2ccc(C)c(C)c2)C(=O)/C1=N\Nc1cccc(-c2cccc(C(=O)O)c2)c1O [Eltrombopag]
- remaining activity at 10 µM (DOT1L): 90 ± 2.8%
- remaining activity at 10 µM (MLL4 complex): 70.9 ± 2.4%
- remaining activity at 10 µM (PRDM9): 130 ± 4%
- remaining activity at 10 µM (SETD2): 97.3 ± 4.1%
- GI50 (MOLM-14 cells): 10.4 ± 0.7 µM
- inhibition at 40 µM ([1]; MOLM-13, 40 μM, 24 h, read-out: maximum m^6A inhibition): 50%
- IC50 ([1]; MOLM-13, 24 h treatment, read-out: IC50 of m^6A/A reduction on poly-A+-enriched mRNA): 17.3 ± 3.5 µM
- number of differential m^6A methylation sites ([2]; MOLM-13, 25 μM eltrombopag): 10,723
- share of differential m^6A sites hypomethylated ([2]; MOLM-13, 25 μM eltrombopag): 71%
- share of hypermethylation ([2]; MOLM-13, 25 μM eltrombopag): about 30%
- share of hypomethylated genes that are noncoding-RNA (ncRNA) ([2]; eltrombopag-treated MOLM-13): 17%
- share of hypomethylated genes that are protein-coding ([2]; eltrombopag-treated MOLM-13): ~ 80%
- share of hypomethylated genes that are pseudogenes ([2]; eltrombopag-treated MOLM-13): 3%
- water solubility [3]: low
